# Experimental data published in PMC7922108, “Three Novel Biphenanthrene Derivatives and a New Phenylpropanoid Ester from Aerides multiflora and Their α-Glucosidase Inhibitory Activity” (Plants, 2021).
# “Also recorded” adds a separate entry of the source.
# Columns and labels:
# [1] = biological target: Yeast α-glucosidase enzyme; assay: α-Glucosidase inhibition assay (PNPG substrate); type: biochemical; details: for IC50 / IC50 (μg/mL), α-glucosidase inhibitory activity: NA = no inhibitory activity, acarbose positive control
# Procedure: Yeast α-glucosidase enzyme was used in this study. In general, α-glucosidase enzymes can be obtained from several sources, for example, Saccharomyces cerevisiae, Rattus norvegicus, and GANC-human.
# The assays were performed following previous protocols. […] Each sample was initially dissolved in 50% DMSO. Then, 0.1 U/mL of α-glucosidase (40 μL) in phosphate buffer (pH 6.8) was added to each well of a 96-well plate which contained the sample solution (10 μL). The plate was pre-incubated at 37 °C for 10 min. Then, 2 mM p-nitrophenol-α-D-glucopyranoside (50 μL) was added, and the mixture was incubated again at 37 °C for 20 min. Finally, 1 M Na2CO3 solution (100 μL) was added to terminate the reaction. The absorbance of the mixture was measured at 405 nm using a microplate reader. Two-fold serial dilution was performed for IC50 determination. The drug acarbose was used as the positive control.
# [2] = test system: Yeast α-glucosidase enzyme; assay: Enzyme kinetics study, Lineweaver–Burk plot and secondary plot; type: biochemical; details: for Mode of enzyme inhibition: from Lineweaver–Burk plot; for Km / Vmax: PNPG 0.25–2.0 mM
# Procedure: A kinetics study was then performed on compound 3 to analyze the mode of enzyme inhibition using various substrate concentrations (0.25–2.0 mM).
# The mode of enzyme inhibition of the test compound was determined using the double reciprocal Lineweaver–Burk plot (1/V vs. 1/[S]). The experiment was performed by varying the PNPG concentrations (0.25, 0.5, 1.0, and 2.0 mM) in the absence or presence of compound 3 (4 μM and 8 μM) or acarbose (930 μM and 465 μM). The secondary plot was constructed by replotting the slopes of the lines against inhibitor concentrations, and the Ki was calculated from the line equation of the plot.
Compound,IC50 [1] [µM],"IC50 (μg/mL), α-glucosidase inhibitory activity [1] [µg/mL]",further results
"COc1cc2c(ccc3c(-c4c(O)cc(OC)c5c4ccc4cc(O)c(OC)cc45)c(O)cc(OC)c32)cc1O [Agrostonin (8), agrostonin]",37.2 ± 4.5,20.1 ± 2.5,
"COc1cc(CCCOC(=O)CCc2ccc(O)cc2)ccc1O [Dihydroconiferyl dihydro-p-coumarate (9), dihydroconiferyl dihydro-p-coumarate]",267 ± 8.6,88.1 ± 2.9,
"COc1cc(O)cc(CCc2ccc(O)c(OC)c2)c1 [Gigantol (6), gigantol]",191 ± 6.8,52.5 ± 1.9,
"COc1cc(CCC(=O)OCCCc2cc(OC)c(O)c(OC)c2)ccc1O [Dihydrosinapyl dihydroferulate (4), dihydrosinapyl dihydroferulate]",,,α-Glucosidase inhibitory activity (in words) [1]: total loss of activity
"COc1cc2c(ccc3c(-c4c(O)cc5c6c4ccc4cc(O)c(OC)c(c46)CO5)c(O)cc(OC)c32)cc1O [Aerimultin B (2), aerimultin B]",77 ± 2.5,41.8 ± 1.3,
"COc1cc(O)c(-c2c(O)cc(OC)c3c2ccc2cc(O)c(O)cc23)c2ccc3cc(O)c(O)cc3c12 [Aerimultin C (3), aerimultin C]",5.2 ± 0.7,2.7 ± 0.4,α-Glucosidase inhibitory activity (in words) [1]: most potent activity; Mode of enzyme inhibition [2]: non-competitive inhibition; also recorded: potent non-competitive inhibitor; Mode of enzyme inhibition ([2]; listed as aerimultin (3)): non-competitive type of inhibition; Ki ([2]; from secondary plot (slopes vs inhibitor concentrations)): 4.18 µM; Km ([2]; inhibitor dose 4 μM): 1220 µM; Vmax ([2]; inhibitor dose 4 μM): 0.055 ∆OD/min; Km ([2]; inhibitor dose 8 μM): 1200 µM; Vmax ([2]; inhibitor dose 8 μM): 0.035 ∆OD/min

# Now from value to molecule, other results behind:
IC50 [1] [µM],"IC50 (μg/mL), α-glucosidase inhibitory activity [1] [µg/mL]",Compound,further results
225 ± 7.8,61.2 ± 2.2,"COc1cc2c(cc1O)CCc1cc(O)cc(OC)c1-2 [6-Methoxy coelonin (5), 6-methoxycoelonin]",
30.9 ± 1.9,16.8 ± 1.0,"COc1cc2c(cc1O)CCc1c(Oc3cc4c(cc3OC)-c3c(cc(O)cc3OC)CC4)c(O)cc(OC)c1-2 [Aerimultin A (1), aerimultin A]",
166 ± 7.7,44.9 ± 2.1,"COc1c(O)cc2c3c1COc1cc(O)cc(c1-3)CC2 [Imbricatin (7), imbricatin]",
115 ± 9.1,29.7 ± 2.3,"COc1cc(O)cc2c1-c1cc(O)c(O)cc1CC2 [5-methoxy-9,10-dihydrophenanthrene-2,3,7-triol]",
